Tests used:
[1] = tested on: human embryonic stem cell derived neural stem cells (NSCs); test: Neural Stem Cell Proliferation Assay (neurogenesis assay, ATP levels by CellTiterGlo); format: cell-based; details: 96 h, compound concentration at which 150% activity of control (100%) is reached, NSC proliferation by ATP level after 4 days incubation, dose response 8 μM to 8 nM
Procedure, shortened: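 Human ESC-derived NSCs (dual SMAD inhibition) seeded 4 h before compounds, 11-point 2-fold series 8 μM–8 nM; 4 days at 37 °C, 5% CO2. ATP by CellTiterGlo luminescence as cell-number proxy, response as % of media control (0.25% DMSO); EC150 = concentration giving 150% of control.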

Compound	melting point	EC (150% of control) [1]
N#Cc1cc(-c2ccc(CO)cc2)c2c(c1)cc1n2CCCNC1=O [Example 266, 7-[4-(Hydroxymethyl)phenyl]-1-oxo-2,3,4,5-tetrahydro-[1,4]diazepino[1,2-a]indole-9-carbonitrile]	256.5 °C	0.93 µM
N#Cc1cccc(-c2cc(C#N)cc3cc4n(c23)CCCNC4=O)c1 [Example 269, 7-(3-Cyanophenyl)-1-oxo-2,3,4,5-tetrahydro-[1,4]diazepino[1,2-a]indole-9-carbonitrile]	225.5 °C	1.09 µM
N#Cc1cc(-c2ccncc2)c2c(c1)cc1n2CCCNC1=O [Example 271, 1-Oxo-7-pyridin-4-yl-2,3,4,5-tetrahydro-[1,4]diazepino[1,2-a]indole-9-carbonitrile]	278.5 °C	0.65 µM
N#Cc1cc(-c2ccccc2)c2c(c1)cc1n2CCCNC1=O [Example 274, 1-Oxo-7-phenyl-2,3,4,5-tetrahydro-[1,4]diazepino[1,2-a]indole-9-carbonitrile]	237.5 °C	1.1 µM
COc1ccc(-c2cc(C#N)cc3cc4n(c23)CCCNC4=O)cc1 [Example 275, 7-(4-Methoxyphenyl)-1-oxo-2,3,4,5-tetrahydro-[1,4]diazepino[1,2-a]indole-9-carbonitrile]	260.5 °C	1.11 µM
Cc1c2n(c3c(-c4ccc([N+](=O)[O-])cc4)cc(C#N)cc13)CCNC2=O [Example 276, 10-Methyl-6-(4-nitrophenyl)-1-oxo-3,4-dihydro-2H-pyrazino[1,2-a]indole-8-carbonitrile]	312 °C	0.11 µM
Cc1c2n(c3c(-c4ccc(CO)cc4)cc(C#N)cc13)CCNC2=O [Example 277, 6-[4-(Hydroxymethyl)phenyl]-10-methyl-1-oxo-3,4-dihydro-2H-pyrazino[1,2-a]indole-8-carbonitrile]	265 °C	0.025 µM
Cc1c2n(c3c(-c4cccc(C#N)c4)cc(C#N)cc13)CCNC2=O [Example 279, 6-(3-Cyanophenyl)-10-methyl-1-oxo-3,4-dihydro-2H-pyrazino[1,2-a]indole-8-carbonitrile]	266 °C	0.31 µM
Cc1c2n(c3c(-c4ccc(C(C)(C)C)cc4)cc(C#N)cc13)CCNC2=O [Example 280, 6-(4-tert-Butylphenyl)-10-methyl-1-oxo-3,4-dihydro-2H-pyrazino[1,2-a]indole-8-carbonitrile]	292 °C	0.14 µM
Cc1c2n(c3c(-c4cccnc4)cc(C#N)cc13)CCNC2=O [Example 282, 10-Methyl-1-oxo-6-pyridin-3-yl-3,4-dihydro-2H-pyrazino[1,2-a]indole-8-carbonitrile]	273 °C	0.96 µM
Cc1c2n(c3c(-c4cncnc4)cc(C#N)cc13)CCNC2=O [Example 283, 10-Methyl-1-oxo-6-pyrimidin-5-yl-3,4-dihydro-2H-pyrazino[1,2-a]indole-8-carbonitrile]	325 °C	1.61 µM
N#Cc1cc(-c2ccc(F)c(F)c2F)c2c(c1)cc1n2CCCNC1=O [Example 284, 1-Oxo-7-(2,3,4-trifluorophenyl)-2,3,4,5-tetrahydro-[1,4]diazepino[1,2-a]indole-9-carbonitrile]	187 °C	0.16 µM
N#Cc1cc(-c2cccc(Cl)c2)c2c(c1)cc1n2CCCNC1=O [Example 285, 7-(3-Chlorophenyl)-1-oxo-2,3,4,5-tetrahydro-[1,4]diazepino[1,2-a]indole-9-carbonitrile]	209 °C	3.12 µM
Cc1ccc(-c2cc(C#N)cc3cc4n(c23)CCCNC4=O)cc1 [Example 287, 7-(4-Methylphenyl)-1-oxo-2,3,4,5-tetrahydro-[1,4]diazepino[1,2-a]indole-9-carbonitrile]	240.5 °C	0.22 µM
Cc1c2n(c3c(-c4ccc(S(C)(=O)=O)cc4)cc(C#N)cc13)CCNC2=O [Example 294, 10-Methyl-6-(4-methylsulfonylphenyl)-1-oxo-3,4-dihydro-2H-pyrazino[1,2-a]indole-8-carbonitrile]	332 °C	0.27 µM

Now from value to compound, other results behind:

melting point	Compound	EC (150% of control) [1]
255 °C	Cc1ccc(-c2cc(C#N)cc3c(C)c4n(c23)CCNC4=O)cc1F [Example 267, 6-(3-Fluoro-4-methylphenyl)-10-methyl-1-oxo-3,4-dihydro-2H-pyrazino[1,2-a]indole-8-carbonitrile]	0.71 µM
318 °C	Cc1c2n(c3c(-c4ccc(Cl)nc4)cc(C#N)cc13)CCNC2=O [Example 278, 6-(6-Chloropyridin-3-yl)-10-methyl-1-oxo-3,4-dihydro-2H-pyrazino[1,2-a]indole-8-carbonitrile]	0.44 µM
281 °C	Cc1c2n(c3c(-c4ccnc(Cl)c4)cc(C#N)cc13)CCNC2=O [Example 281, 6-(2-Chloropyridin-4-yl)-10-methyl-1-oxo-3,4-dihydro-2H-pyrazino[1,2-a]indole-8-carbonitrile]	0.22 µM
287 °C	Cc1ccc(-c2cc(C#N)cc3c(C)c4n(c23)CCCNC4=O)cc1 [Example 288, 11-Methyl-7-(4-methylphenyl)-1-oxo-2,3,4,5-tetrahydro-[1,4]diazepino[1,2-a]indole-9-carbonitrile]	0.04 µM
261 °C	Cc1c2n(c3c(-c4cccc(F)c4)cc(C#N)cc13)CCCNC2=O [Example 289, 7-(3-Fluorophenyl)-11-methyl-1-oxo-2,3,4,5-tetrahydro-[1,4]diazepino[1,2-a]indole-9-carbonitrile]	0.035 µM
265 °C	Cc1c2n(c3c(-c4cc(F)cc(F)c4)cc(C#N)cc13)CCCNC2=O [Example 290, 7-(3,5-Difluorophenyl)-11-methyl-1-oxo-2,3,4,5-tetrahydro-[1,4]diazepino[1,2-a]indole-9-carbonitrile]	0.29 µM
265 °C	Cc1ccc(-c2cc(C#N)cc3c(C)c4n(c23)CCCNC4=O)cc1F [Example 291, 7-(3-Fluoro-4-methylphenyl)-11-methyl-1-oxo-2,3,4,5-tetrahydro-[1,4]diazepino[1,2-a]indole-9-carbonitrile]	0.16 µM
232 °C	Cc1cc(-c2cc(C#N)cc3c(C)c4n(c23)CCNC4=O)ccc1F [Example 292, 6-(4-Fluoro-3-methylphenyl)-10-methyl-1-oxo-3,4-dihydro-2H-pyrazino[1,2-a]indole-8-carbonitrile]	0.089 µM
278 °C	Cc1c2n(c3c(-c4ccc(Cl)c(C(F)(F)F)c4)cc(C#N)cc13)CCNC2=O [Example 295, 6-[4-Chloro-3-(trifluoromethyl)phenyl]-10-methyl-1-oxo-3,4-dihydro-2H-pyrazino[1,2-a]indole-8-carbonitrile]	0.3 µM
254 °C	Cc1c2n(c3c(-c4ccc(Cl)c(Cl)c4)cc(C#N)cc13)CCCNC2=O [Example 296, 7-(3,4-Dichlorophenyl)-11-methyl-1-oxo-2,3,4,5-tetrahydro-[1,4]diazepino[1,2-a]indole-9-carbonitrile]	0.2 µM
247.5 °C	Cc1c2n(c3c(-c4ccc(Cl)c(F)c4)cc(C#N)cc13)CCCNC2=O [Example 297, 7-(4-Chloro-3-fluorophenyl)-11-methyl-1-oxo-2,3,4,5-tetrahydro-[1,4]diazepino[1,2-a]indole-9-carbonitrile]	0.096 µM
260 °C	Cc1c2n(c3c(-c4cccnc4)cc(C#N)cc13)CCCNC2=O [Example 298, 11-Methyl-1-oxo-7-pyridin-3-yl-2,3,4,5-tetrahydro-[1,4]diazepino[1,2-a]indole-9-carbonitrile]	1 µM
